Test results as given in the NIST ThermoML archive (doi:10.1016/j.jct.2013.05.051).

Conditions: Liquid, Vibrating tube method

CCCCCCCO [heptan-1-ol]
mass density [kg/m3]
Conditions | 298.15 K | 313.15 K | 333.15 K | 353.15 K | 373.15 K | 393.15 K
100 kPa | 818.7 | 808 | 793.3 | 778.1 | 761.9 | 744.9
1000 kPa | 819.3 | 808.6 | 794 | 778.8 | 762.8 | 745.8
5000 kPa | 821.9 | 811.4 | 797.1 | 782.3 | 766.6 | 750.2
10000 kPa | 824.9 | 814.7 | 800.7 | 786.3 | 771.1 | 755.3
15000 kPa | 828 | 817.9 | 804.3 | 790.2 | 775.5 | 760.1
20000 kPa | 830.8 | 821 | 807.7 | 793.9 | 779.5 | 764.6
25000 kPa | 833.5 | 823.8 | 810.8 | 797.3 | 783.4 | 768.8
30000 kPa | 836.3 | 826.8 | 813.9 | 800.7 | 787.1 | 772.9
35000 kPa | 838.8 | 829.5 | 816.9 | 804 | 790.6 | 776.8
40000 kPa | 841.3 | 832.1 | 819.8 | 807.1 | 794 | 780.4
45000 kPa | 843.8 | 834.7 | 822.4 | 810 | 797.2 | 783.9
50000 kPa | 846.2 | 837.2 | 825.2 | 813 | 800.3 | 787.3
55000 kPa | 848.5 | 839.7 | 827.8 | 815.8 | 803.4 | 790.7
60000 kPa | 850.8 | 842.1 | 830.3 | 818.6 | 806.3 | 793.8
65000 kPa | 853 | 844.4 | 832.9 | 821.2 | 809.2 | 796.8
70000 kPa | 855.2 | 846.7 | 835.3 | 823.8 | 811.9 | 799.8
80000 kPa | 859.4 | 851.1 | 839.9 | 828.7 | 817.2 | 805.5
90000 kPa | 863.5 | 855.3 | 844.5 | 833.5 | 822.3 | 810.9
100000 kPa | 867.3 | 859.3 | 848.7 | 837.9 | 827 | 815.9
110000 kPa | 871.1 | 863.2 | 852.8 | 842.3 | 831.6 | 820.8
120000 kPa | 874.6 | 867 | 856.8 | 846.4 | 835.9 | 825.3
130000 kPa | 878.1 | 870.6 | 860.5 | 850.3 | 840.2 | 829.8
140000 kPa | 881.5 | 874.2 | 864.3 | 854.3 | 844.1 | 834
